#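 A five-concentration, 48-hour dose response in 96-well plates underlies each endpoint, interpolated linearly between surrounding concentrations. At the GI50, growth is halved. TGI: total growth inhibition.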
# What was measured:
# Test in all cases: NCI tumour cell line growth inhibition, 48 h
# NCI-H226 lung = system: NCI-H226 lung
# NCI-H23 lung = system: NCI-H23 lung
# NCI-H460 lung = system: NCI-H460 lung
# NCI-H522 lung = system: NCI-H522 lung
# NCI/ADR-RES ovarian = system: NCI/ADR-RES ovarian
# OVCAR-3 ovarian = system: OVCAR-3 ovarian
# OVCAR-4 ovarian = system: OVCAR-4 ovarian
# OVCAR-5 ovarian = system: OVCAR-5 ovarian
# OVCAR-8 ovarian = system: OVCAR-8 ovarian
# PC-3 prostate = system: PC-3 prostate
# RPMI-8226 leukemia = system: RPMI-8226 leukemia
# RXF 393 renal = system: RXF 393 renal
# SF-268 CNS = system: SF-268 CNS
# SF-295 CNS = system: SF-295 CNS
# SF-539 CNS = system: SF-539 CNS
# SK-MEL-2 melanoma = system: SK-MEL-2 melanoma
# SK-MEL-28 melanoma = system: SK-MEL-28 melanoma
# SK-MEL-5 melanoma = system: SK-MEL-5 melanoma
# SK-OV-3 ovarian = system: SK-OV-3 ovarian
# SN12C renal = system: SN12C renal
# SNB-19 CNS = system: SNB-19 CNS
# SNB-75 CNS = system: SNB-75 CNS
# SR leukemia = system: SR leukemia
# SW-620 colon = system: SW-620 colon
# T-47D breast = system: T-47D breast
# TK-10 renal = system: TK-10 renal
# U251 CNS = system: U251 CNS
# UACC-257 melanoma = system: UACC-257 melanoma
# UACC-62 melanoma = system: UACC-62 melanoma
# UO-31 renal = system: UO-31 renal
compound,measurement,setting,value
O=C(COc1ccc(NC(=O)Nc2ccc(Cl)c(Cl)c2)cc1)N=Nc1c(O)[nH]c2ccc(Cl)cc12,TGI,NCI-H226 lung,4.59 µM
same,GI50,NCI-H23 lung,2.08 µM
same,TGI,NCI-H23 lung,4.4 µM
same,GI50,NCI-H460 lung,1.92 µM
same,TGI,NCI-H460 lung,4.07 µM
same,GI50,NCI-H522 lung,1.74 µM
same,TGI,NCI-H522 lung,3.57 µM
same,GI50,NCI/ADR-RES ovarian,> 100 µM
same,TGI,NCI/ADR-RES ovarian,> 100 µM
same,GI50,OVCAR-3 ovarian,1.97 µM
same,TGI,OVCAR-3 ovarian,4.1 µM
same,GI50,OVCAR-4 ovarian,2.26 µM
same,TGI,OVCAR-4 ovarian,6.15 µM
same,GI50,OVCAR-5 ovarian,2.11 µM
same,TGI,OVCAR-5 ovarian,5.39 µM
same,GI50,OVCAR-8 ovarian,2.3 µM
same,TGI,OVCAR-8 ovarian,5.36 µM
same,GI50,PC-3 prostate,2.1 µM
same,TGI,PC-3 prostate,5.07 µM
same,GI50,RPMI-8226 leukemia,2.44 µM
same,TGI,RPMI-8226 leukemia,6.2 µM
same,GI50,RXF 393 renal,1.62 µM
same,TGI,RXF 393 renal,3.13 µM
same,GI50,SF-268 CNS,2.23 µM
same,TGI,SF-268 CNS,5.18 µM
same,GI50,SF-295 CNS,1.81 µM
same,TGI,SF-295 CNS,3.54 µM
same,GI50,SF-539 CNS,1.78 µM
same,TGI,SF-539 CNS,3.4 µM
same,GI50,SK-MEL-2 melanoma,2.07 µM
same,TGI,SK-MEL-2 melanoma,4.83 µM
same,GI50,SK-MEL-28 melanoma,1.89 µM
same,TGI,SK-MEL-28 melanoma,3.86 µM
same,GI50,SK-MEL-5 melanoma,1.72 µM
same,TGI,SK-MEL-5 melanoma,3.18 µM
same,GI50,SK-OV-3 ovarian,2.19 µM
same,TGI,SK-OV-3 ovarian,4.98 µM
same,GI50,SN12C renal,1.93 µM
same,TGI,SN12C renal,3.67 µM
same,GI50,SNB-19 CNS,2.66 µM
same,TGI,SNB-19 CNS,7.49 µM
same,GI50,SNB-75 CNS,1.58 µM
same,TGI,SNB-75 CNS,3.49 µM
same,GI50,SR leukemia,2.18 µM
same,TGI,SR leukemia,9.97 µM
same,GI50,SW-620 colon,1.79 µM
same,TGI,SW-620 colon,3.59 µM
same,GI50,T-47D breast,2.01 µM
same,TGI,T-47D breast,4.76 µM
same,GI50,TK-10 renal,2.86 µM
same,TGI,TK-10 renal,9.89 µM
same,GI50,U251 CNS,1.9 µM
same,TGI,U251 CNS,3.79 µM
same,GI50,UACC-257 melanoma,2 µM
same,TGI,UACC-257 melanoma,4.15 µM
same,GI50,UACC-62 melanoma,1.98 µM
same,TGI,UACC-62 melanoma,4.45 µM
same,GI50,UO-31 renal,22.5 µM
same,TGI,UO-31 renal,> 100 µM

# Source: PubChem BioAssay (NCI)
